In brackets after ≈: the same amount, converted by molar mass. Read-outs that look alike come from different tables or passages of the source.
What was measured:
A. fumigatus RCMB 02568 [1] = assay: MIC, two-fold serial dilution; details: for MIC: Aspergillus fumigatus, RCMB02568, read-out: MIC A. fumigatus RCMB 02568
C. albicans ATCC 10231 [2] = assay: MIC, two-fold serial dilution; details: for MIC: Candida albicans, ATCC10231, read-out: MIC C. albicans ATCC 10231
C. albicans ATCC 10231 [3] = assay: Agar well diffusion, inhibition zone; assay type: cell-based; details: Candida albicans
A. fumigatus RCMB 02568 [4] = assay: Agar well diffusion, inhibition zone; assay type: cell-based; details: Aspergillus fumigatus
S. typhi ATCC 14028 [5] = assay: Agar well diffusion, inhibition zone; assay type: cell-based; details: Salmonella enterica, read-out: Mean diameter of inhibition zone (mean ± SEM) S. typhi ATCC 14028
S. aureus 25923 [6] = assay: MIC, two-fold serial dilution; details: Staphylococcus aureus, 25923, read-out: MIC S. aureus 25923
S. pneumoniae 010010 [7] = assay: Agar well diffusion, inhibition zone; assay type: cell-based
E. coli RCMB 010052 [8] = assay: MIC, two-fold serial dilution; details: Escherichia coli, RCMB010052, read-out: MIC E. coli RCMB 010052
MCF-7 cells = assay: In vitro cytotoxicity, MTT assay, MCF-7; details: Homo sapiens, MCF7, read-out: IC50 MCF-7
S. typhi ATCC 14028 [9] = assay: MIC, two-fold serial dilution; assay type: cell-based; details: Salmonella enterica, read-out: MIC S. typhi ATCC 14028
S. aureus 25923 [10] = assay: Agar well diffusion, inhibition zone; assay type: cell-based
E. coli RCMB 010052 [11] = assay: Agar well diffusion, inhibition zone; assay type: cell-based; details: Escherichia coli
P. aeruginosa [12] = assay: Agar well diffusion, inhibition zone; assay type: cell-based; details: Pseudomonas aeruginosa, read-out: Mean diameter of inhibition zone (mean ± SEM) P. aeruginosa
E. faecalis [13] = assay: Agar well diffusion, inhibition zone; assay type: cell-based; details: Enterococcus faecalis, read-out: Mean diameter of inhibition zone (mean ± SEM) E. faecalis
HepG-2 cells = assay: In vitro cytotoxicity, MTT assay, HepG-2; details: Homo sapiens, HepG2, read-out: IC50 HepG-2
S. pneumoniae 010010 [14] = assay: MIC, two-fold serial dilution; details: for MIC: Streptococcus pneumoniae, 010010, read-out: MIC S. pneumoniae 010010
E. faecalis [15] = assay: MIC, two-fold serial dilution; details: Enterococcus faecalis, read-out: MIC E. faecalis
P. aeruginosa [16] = assay: MIC, two-fold serial dilution; details: for MIC: Pseudomonas aeruginosa, read-out: MIC P. aeruginosa
[17] = Streptococcus pneumoniae, 010010, read-out: Mean diameter of inhibition zone (mean ± SEM) S. pneumoniae 010010
[18] = ATCC10231, read-out: Mean diameter of inhibition zone (mean ± SEM) C. albicans ATCC 10231
[19] = Staphylococcus aureus, 25923, read-out: Mean diameter of inhibition zone (mean ± SEM) S. aureus 25923
[20] = RCMB010052, read-out: Mean diameter of inhibition zone (mean ± SEM) E. coli RCMB 010052
[21] = RCMB02568, read-out: Mean diameter of inhibition zone (mean ± SEM) A. fumigatus RCMB 02568

Structure (SMILES)	MIC (A. fumigatus RCMB 02568 [1])	MIC (C. albicans ATCC 10231 [2])	zone of inhibition at 500 µg/mL (S. typhi ATCC 14028 [5])	MIC (S. aureus 25923 [6])	zone of inhibition at 500 µg/mL (S. pneumoniae 010010 [7]; [17])	zone of inhibition at 500 µg/mL (C. albicans ATCC 10231 [3]; [18])	MIC (E. coli RCMB 010052 [8])	IC50 (MCF-7 cells)	MIC (S. typhi ATCC 14028 [9])	zone of inhibition at 500 µg/mL (S. aureus 25923 [10]; [19])	zone of inhibition at 500 µg/mL (E. coli RCMB 010052 [11]; [20])	zone of inhibition at 500 µg/mL (P. aeruginosa [12])	zone of inhibition at 500 µg/mL (A. fumigatus RCMB 02568 [4]; [21])	zone of inhibition at 500 µg/mL (E. faecalis [13])	melting point	IC50 (HepG-2 cells)	MIC (S. pneumoniae 010010 [14])	MIC (E. faecalis [15])	MIC (P. aeruginosa [16])	also measured
C[C@@H]1[C@H](O)[C@@H](C)/C=C/C=C/C=C/C=C/C=C/C=C/C=C/[C@H](O[C@@H]2O[C@H](C)[C@@H](O)[C@H](N)[C@@H]2O)C[C@@H]2O[C@](O)(C[C@@H](O)C[C@@H](O)[C@H](O)CC[C@@H](O)C[C@@H](O)CC(=O)O[C@H]1C)C[C@H](O)[C@H]2C(=O)O [Amphotericin B, reference compound]	39.1 µM (≈ 36.2 µg/mL)	67.8 µM (≈ 62.7 µg/mL)	–	–	–	–	–	–	–	–	–	–	–	–	–	–	–	–	–	zone of inhibition at 500 µg/mL (C. albicans ATCC 10231 [3]; ATCC10231, well diffusion agar, 0.5 mg/mL, read-out: Mean diameter of inhibition zone (mean ± SEM) C. albicans ATCC 10231): 20 ± 0.78 mm; zone of inhibition at 500 µg/mL (A. fumigatus RCMB 02568 [4]; RCMB02568, well diffusion agar, 0.5 mg/mL, read-out: Mean diameter of inhibition zone (mean ± SEM) A. fumigatus RCMB 02568): 22 ± 0.72 mm
Cc1c(Nc2nc3c(C#N)c(N)sc3s2)c(=O)n(-c2ccccc2)n1C [Compound 3a, 5-Amino-2-((1,5-dimethyl-3-oxo-2-phenyl-2,3-dihydro-1H-pyrazol-4-yl)amino)thieno [3,2-d]thiazole-6-carbonitrile]	120 µM (≈ 45.9 µg/mL)	186 µM (≈ 71.2 µg/mL)	17 ± 0.95 mm	16.9 µM (≈ 6.44 µg/mL)	21 ± 0.69 mm	12 ± 0.51 mm	19.4 µM (≈ 7.4 µg/mL)	27.58 ± 0.01 µM	125 µM (≈ 47.9 µg/mL)	28 ± 0.15 mm	25 ± 0.15 mm	22 ± 0.44 mm	18 ± 0.25 mm	13 ± 0.76 mm	> 300 °C	25.72 ± 0.03 µM	58.9 µM (≈ 22.5 µg/mL)	185 µM (≈ 70.8 µg/mL)	40.5 µM (≈ 15.5 µg/mL)	MIC A. fumigatus RCMB 02568 (A. fumigatus RCMB 02568 [1]; two-fold serial dilution): completely lost; MIC C. albicans ATCC 10231 (C. albicans ATCC 10231 [2]; two-fold serial dilution): completely lost; fold more potency than streptomycin, S. pneumoniae (S. pneumoniae 010010 [14]; from MIC): 1.1 folds; fold more potency than streptomycin, P. aeruginosa (P. aeruginosa [16]; from MIC): 1.6 folds
CCOC(=O)c1c(N)sc2sc(Nc3c(C)n(C)n(-c4ccccc4)c3=O)nc12 [Compound 3b, Ethyl 5-amino-2-((1,5-dimethyl-3-oxo-2-phenyl-2,3-dihydro-1H-pyrazol-4-yl)amino) thieno[3,2-d]thiazole-6-carboxylate]	62.1 µM (≈ 26.7 µg/mL)	189 µM (≈ 81.2 µg/mL)	23 ± 0.79 mm	79 µM (≈ 33.9 µg/mL)	14 ± 0.84 mm	11 ± 0.7 mm	119 µM (≈ 51.1 µg/mL)	36.77 ± 0.02 µM	45.6 µM (≈ 19.6 µg/mL)	19 ± 0.68 mm	15 ± 0.71 mm	17 ± 0.41 mm	21 ± 0.22 mm	20 ± 0.24 mm	285 to 287 °C	39.02 ± 0.02 µM	179 µM (≈ 76.7 µg/mL)	67.4 µM (≈ 29 µg/mL)	125 µM (≈ 53.6 µg/mL)	–
Cc1c(Nc2nc3c(C(N)=S)c(N)sc3s2)c(=O)n(-c2ccccc2)n1C [Compound 3d, 5-Amino-2-((1,5-dimethyl-3-oxo-2-phenyl-2,3-dihydro-1H-pyrazol-4-yl)amino) thieno[3,2-d]thiazole-6-carbothioamide]	118 µM (≈ 49.1 µg/mL)	132 µM (≈ 55.1 µg/mL)	18 ± 0.13 mm	181 µM (≈ 75.4 µg/mL)	28 ± 0.45 mm	16 ± 0.28 mm	71.8 µM (≈ 29.9 µg/mL)	18.19 ± 0.01 µM	121 µM (≈ 50.6 µg/mL)	13 ± 0.95 mm	22 ± 0.14 mm	20 ± 0.19 mm	19 ± 0.45 mm	22 ± 0.11 mm	297 to 299 °C	16.91 ± 0.01 µM	16.2 µM (≈ 6.74 µg/mL)	75.5 µM (≈ 31.4 µg/mL)	67 µM (≈ 27.9 µg/mL)	–
Cc1c(Nc2nc3c(s2)sc(=S)n3-c2ccccc2)c(=O)n(-c2ccccc2)n1C [Compound 5a, 1,5-Dimethyl-2-phenyl-4-((4-phenyl-5-thioxo-4,5-dihydrothiazolo[4,5-d]thiazol-2-yl)amino)-1H-pyrazol-3(2H)-one]	197 µM (≈ 89.2 µg/mL)	–	23 ± 0.05 mm	63.6 µM (≈ 28.7 µg/mL)	–	–	–	73.8 ± 0.04 µM	44.7 µM (≈ 20.2 µg/mL)	21.2 ± 0.25 mm	–	–	9 ± 0.53 mm	13 ± 0.43 mm	201 to 203 °C	65.19 ± 0.02 µM	–	183 µM (≈ 82.8 µg/mL)	–	–
CCn1c(=S)sc2sc(Nc3c(C)n(C)n(-c4ccccc4)c3=O)nc21 [Compound 5b, 4-((4-Ethyl-5-thioxo-4,5-dihydrothiazolo[4,5-d]thiazol-2-yl)amino)-1,5-dimethyl-2-phenyl-1H-pyrazol-3(2H)-one]	–	185 µM (≈ 74.7 µg/mL)	–	135 µM (≈ 54.6 µg/mL)	28 ± 0.12 mm	12 ± 0.07 mm	193 µM (≈ 78 µg/mL)	43.94 ± 0.02 µM	–	16 ± 0.88 mm	10 ± 0.42 mm	18 ± 0.95 mm	–	27 ± 0.41 mm	183 to 185 °C	48.04 ± 0.03 µM	15.9 µM (≈ 6.4 µg/mL)	15.2 µM (≈ 6.13 µg/mL)	122 µM (≈ 49.1 µg/mL)	–
Cc1c(Nc2nc3c(s2)sc(=S)n3C)c(=O)n(-c2ccccc2)n1C [Compound 5c, 1,5-Dimethyl-4-((4-methyl-5-thioxo-4,5-dihydrothiazolo[4,5-d]thiazol-2-yl)amino)-2-phenyl-1H-pyrazol-3(2H)-one]	17.8 µM (≈ 6.95 µg/mL)	79.4 µM (≈ 30.9 µg/mL)	17 ± 0.78 mm	68.8 µM (≈ 26.8 µg/mL)	15 ± 0.86 mm	19 ± 0.23 mm	20.8 µM (≈ 8.08 µg/mL)	14.69 ± 0.03 µM	125 µM (≈ 48.8 µg/mL)	20 ± 0.08 mm	25 ± 0.1 mm	22 ± 0.48 mm	26 ± 0.17 mm	24 ± 0.89 mm	189 to 191 °C	11.85 ± 0.03 µM	178 µM (≈ 69.4 µg/mL)	18.9 µM (≈ 7.35 µg/mL)	62.2 µM (≈ 24.2 µg/mL)	–
Cc1c(Nc2nc3c(s2)sc(=S)n3-c2ccc(Cl)cc2)c(=O)n(-c2ccccc2)n1C [Compound 5d, 4-((4-(4-Chlorophenyl)-5-thioxo-4,5-dihydrothiazolo[4,5-d]thiazol-2-yl)amino)-1,5-dimethyl-2-phenyl-1H-pyrazol-3(2H)-one]	–	–	–	18.9 µM (≈ 9.17 µg/mL)	–	–	118 µM (≈ 57.4 µg/mL)	88.56 ± 0.01 µM	–	25 ± 0.13 mm	15 ± 0.04 mm	13 ± 0.11 mm	–	–	211 to 213 °C	81.5 ± 0.03 µM	–	–	180 µM (≈ 87.6 µg/mL)	–
COc1cccc2c1C(=O)c1c(O)c3c(c(O)c1C2=O)C[C@@](O)(C(=O)CO)C[C@@H]3O[C@H]1C[C@H](N)[C@H](O)[C@H](C)O1 [Doxorubicin, doxorubicin, reference compound]	–	–	–	–	–	–	–	4.62 ± 0.01 µM	–	–	–	–	–	–	–	5.66 ± 0.01 µM	–	–	–	–
[H]/N=C(/N)N[C@H]1[C@H](O)[C@@H](O)[C@H](O[C@@H]2O[C@@H](C)[C@](O)(C=O)[C@H]2O[C@@H]2O[C@@H](CO)[C@H](O)[C@@H](O)[C@@H]2NC)[C@@H](N/C(N)=N\[H])[C@@H]1O [Streptomycin, reference compound]	–	–	23 ± 0.92 mm	16.8 µM (≈ 9.74 µg/mL)	–	–	9.18 µM (≈ 5.34 µg/mL)	–	47.1 µM (≈ 27.4 µg/mL)	–	–	–	–	–	–	–	65.3 µM (≈ 38 µg/mL)	19.5 µM (≈ 11.3 µg/mL)	68.2 µM (≈ 39.7 µg/mL)	zone of inhibition at 500 µg/mL (S. pneumoniae 010010 [7]; Streptococcus pneumoniae, 010010, well diffusion agar, 0.5 mg/mL, read-out: Mean diameter of inhibition zone (mean ± SEM) S. pneumoniae 010010): 22 ± 0.81 mm; zone of inhibition at 500 µg/mL (S. aureus 25923 [10]; Staphylococcus aureus, 25923, well diffusion agar, 0.5 mg/mL, read-out: Mean diameter of inhibition zone (mean ± SEM) S. aureus 25923): 26 ± 0.45 mm; zone of inhibition at 500 µg/mL (E. coli RCMB 010052 [11]; RCMB010052, well diffusion agar, 0.5 mg/mL, read-out: Mean diameter of inhibition zone (mean ± SEM) E. coli RCMB 010052): 27 ± 0.56 mm; zone of inhibition at 500 µg/mL (P. aeruginosa [12]; well diffusion agar, 0.5 mg/mL): 20 ± 0.53 mm; zone of inhibition at 500 µg/mL (E. faecalis [13]; well diffusion agar, 0.5 mg/mL): 25 ± 0.38 mm

Reference: article PMC8694192, “Synthesis and biological evaluation of new derivatives of thieno-thiazole and dihydrothiazolo-thiazole scaffolds integrated with a pyrazoline nucleus as anticancer and multi-targeting kinase inhibitors” (RSC Advances, 2021)
